Data set [1] is described as follows: Molar enthalpy of transition or fusion. As to conditions: DSC.
The conditions of data set [2]: DTA.

Results on 11 compounds are retold here after the NIST ThermoML archive (doi:10.1016/j.jct.2007.03.005).

Numbers after ± are expanded uncertainties.

For `N#CCCCC#N` [pentanedinitrile], the “Molar enthalpy of transition or fusion” value in data set [1] (Crystal) was determined as 2.88 ± 0.189 kcal/mol. Besides, the Normal melting temperature in data set [2] (Crystal) is -31.10 ± 0.5 °C.
`N#CCCCCCCCCCCCCC#N` [tetradecanedinitrile]: the “Molar enthalpy of transition or fusion” value in data set [1] (Crystal 1) came out at 9.6 ± 0.227 kcal/mol; in data set [1] (Crystal 2) it was 0.423 ± 0.0741 kcal/mol. For the same compound, the Normal melting temperature in data set [2] (Crystal 1) was 36.40 ± 0.8 °C. In addition, in data set [2] (Crystal 2), the Triple point temperature is given as 261.05 ± 0.56 K.
In the same order, the values of `N#CCCC#N` [butanedinitrile] are 0.896 ± 0.11 kcal/mol, 1.46 ± 0.0813 kcal/mol, 57.11 ± 1.4 °C and 233.59 ± 0.53 K.
With `N#CCCCCCCCCCCC#N` [dodecanedinitrile], the “Molar enthalpy of transition or fusion” value in data set [1] (Crystal) is 8.21 ± 0.263 kcal/mol. In addition, the Normal melting temperature in data set [2] (Crystal) came to 21.08 ± 0.48 °C.
In the case of `N#CCCCCCCCCCC#N` [undecanodinitrile], the “Molar enthalpy of transition or fusion” value in data set [1] (Crystal) amounted to 6.22 ± 0.406 kcal/mol. Moreover, in data set [2] (Crystal), the Normal melting temperature was -7.01 ± 0.73 °C.
Regarding `N#CCCCCCCCCC#N` [decanedinitrile], the “Molar enthalpy of transition or fusion” value in data set [1] (Crystal 1) was 6.73 ± 0.153 kcal/mol. Moreover, in data set [2] (Crystal 1), the Normal melting temperature turned out to be 8.03 ± 0.46 °C. Also, in data set [2] (Crystal 2), the Triple point temperature was 278.02 ± 1.9 K.
Take `N#CCCCCCCC#N` [octanedinitrile]: the “Molar enthalpy of transition or fusion” value in data set [1] (Crystal 1) turned out to be 5.25 ± 0.148 kcal/mol. Also, the Normal melting temperature in data set [2] (Crystal 1) is -4.22 ± 1.1 °C. The Triple point temperature in data set [2] (Crystal 2) amounted to 265.82 ± 2.5 K.
Regarding `N#CCC#N` [propanedinitrile], the “Molar enthalpy of transition or fusion” value stood at 2.56 ± 0.11 kcal/mol in data set [1] (Crystal 1) and 0.103 ± 0.0287 kcal/mol in data set [1] (Crystal 4). Further, the Normal melting temperature in data set [2] (Crystal 1) is 31.89 ± 0.55 °C. Also, the Triple point temperature was found to be 303.64 ± 2.1 K in data set [2] (Crystal 2), 294.24 ± 1.1 K in data set [2] (Crystal 3) and 260.9 ± 1.6 K in data set [2] (Crystal 4).
`N#CCCCCCCCC#N` [nonanedinitrile]: the “Molar enthalpy of transition or fusion” value in data set [1] (Crystal) amounted to 4.46 ± 0.263 kcal/mol. The Normal melting temperature in data set [2] (Crystal) was -22.01 ± 0.55 °C.
With `N#CCCCCCC#N` [heptanedinitrile], the “Molar enthalpy of transition or fusion” value in data set [1] (Crystal 1) came to 3.59 ± 0.406 kcal/mol. Moreover, in data set [2] (Crystal 1), the Normal melting temperature was -31.4 ± 0.39 °C. Moreover, in data set [2] (Crystal 2), the Triple point temperature turned out to be 236.72 ± 1.8 K.
On the same counts, the results for `N#CCCCCC#N` [hexanedinitrile] are 4.31 ± 0.153 kcal/mol, 1.89 ± 0.49 °C and 270.25 ± 1.9 K.
